The experiment deals with T1, human GPBAR1 receptor (Homo sapiens, UniProt Q8TDU6).
T1 construct: expressed in transfected cells
T1 sequence (Q8TDU6 1-330): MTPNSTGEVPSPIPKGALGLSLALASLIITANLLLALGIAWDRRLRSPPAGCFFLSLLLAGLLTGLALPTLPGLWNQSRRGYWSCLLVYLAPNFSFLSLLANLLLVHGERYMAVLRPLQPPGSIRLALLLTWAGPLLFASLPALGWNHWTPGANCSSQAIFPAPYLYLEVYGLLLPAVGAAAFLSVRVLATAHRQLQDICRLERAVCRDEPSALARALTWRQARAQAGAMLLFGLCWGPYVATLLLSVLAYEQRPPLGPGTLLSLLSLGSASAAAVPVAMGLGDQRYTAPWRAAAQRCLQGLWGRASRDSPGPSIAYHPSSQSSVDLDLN
As to the kind of experiment: functional cAMP assay in CHO-dhfr(minus) cells expressing human GPBAR1 receptors. Type of experiment: cell-based. The following applies: human EC50, functional cAMP assay, 30 min at 30° C. The gist of the method: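 Agonist cAMP read-out: stable GPBAR1 CHO-dhfr− clone, 30 min compound exposure at 30° C following 30 min IBMX (1 mM) preincubation in Krebs Ringer bicarbonate. Time-resolved energy-transfer detection gives EC50; parental CHO cells serve as counter-screen.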

By EC50 is commonly meant the concentration needed to bring the measured effect to its halfway point.

For the compound `CCOC(=O)COc1cccc(-c2ccc(C(C/C(=N\O)c3ccncc3)c3ccccc3)cc2)c1` (stereo not shown) [Example 28, (4′-{3-[(E)-Hydroxyimino]-1-phenyl-3-pyridin-4-yl-propyl}-biphenyl-3-yloxy)-acetic acid ethyl ester], the midpoint of the response, the EC50, lay at 163 nM.
`COCCN(C)c1ccc(C(C/C(=N\O)c2ccncc2)c2ccccc2C)cc1` (stereo not shown) [Example 39, (E)-3-{4-[(2-Methoxy-ethyl)-methyl-amino]-phenyl}-1-pyridin-4-yl-3-o-tolyl-propan-1-one oxime] displayed a half-maximal effective concentration (EC50) of 75 nM.
The figure for `Cc1ccccc1C(Cc1ccc(Br)cc1)/C(=N/O)c1ccncc1` (stereo not shown) [Example 43, (Z)-3-(4-Bromo-phenyl)-1-pyridin-4-yl-2-o-tolyl-propan-1-one oxime] is 847 nM; for `Cc1ccccc1C(Cc1ccc(Br)cc1)/C(=N\O)c1ccncc1` (stereo not shown) [Example 44, (E)-3-(4-bromo-phenyl)-1-pyridin-4-yl-2-o-tolyl-propan-1-one oxime] it is 421 nM; for `O/N=C(\CC(c1ccccc1)c1ccc(Br)cc1)c1cc(Cl)nc(Cl)c1` (stereo not shown) [Example 47, (E)-3-(4-Bromo-phenyl)-1-(2,6-dichloro-pyridin-4-yl)-3-phenyl-propan-1-one oxime] it is 548 nM.
The compound `Cc1ccccc1C(C/C(=N\O)c1cc(F)cc(F)c1F)c1ccc(Br)cc1` (stereo not shown) [Example 48, (E)-3-(4-Bromo-phenyl)-3-o-tolyl-1-(2,3,5-trifluoro-phenyl)-propan-1-one oxime] yielded an EC50 of 4360 nM.
In turn, `Cc1ccccc1C(C/C(=N\O)c1cc(F)ccc1F)c1ccc(Br)cc1` (stereo not shown) [Example 52, (E)-3-(4-Bromo-phenyl)-1-(2,5-difluoro-phenyl)-3-o-tolyl-propan-1-one oxime] showed an EC50 of 763 nM.
`Cc1ccccc1C(C/C(=N\O)c1cc(F)cc(F)c1)c1ccc(Br)cc1` (stereo not shown) [Example 53, (E)-3-(4-bromo-phenyl)-1-(3,5-difluoro-phenyl)-3-o-tolyl-propan-1-one oxime] registered an EC50 of 6760 nM.
As to `Cc1ccccc1C(C/C(=N\O)c1cc(F)cc(F)c1)c1ccc(-c2cncnc2)cc1` (stereo not shown) [Example 54, (E)-1-(3,5-Difluoro-phenyl)-3-(4-pyrimidin-5-yl-phenyl)-3-o-tolyl-propan-1-one oxime], the EC50 worked out at 2580 nM.
With `Cc1cc(/C(CC(c2ccccc2)c2ccccc2)=N/O)cc(F)n1` [Example 56, (E)-1-(2-Fluoro-6-methyl-pyridin-4-yl)-3,3-diphenyl-propan-1-one oxime] the figure was 203 nM; with `O/N=C(\CC1c2ccccc2CCc2ccccc21)c1ccncc1` [Example 60, (E)-2-(10,11-Dihydro-5H-dibenzo[a,d]cyclohepten-5-yl)-1-pyridin-4-yl-ethanone oxime], 810 nM.
The compound `Cc1cccnc1C(C/C(=N\O)c1ccncc1)c1ccc(N(C)C)cc1` (stereo not shown) [Example 65, (E)-3-(4-Dimethylamino-phenyl)-3-(3-methyl-pyridin-2-yl)-1-pyridin-4-yl-propan-1-one oxime] came in with an EC50 of 39 nM.
In the case of `Cc1cc(/C(CC(c2ccccc2)c2ccccn2)=N/O)cc(C)n1` (stereo not shown) [Example 68, (E)-1-(2,6-Dimethyl-pyridin-4-yl)-3-phenyl-3-pyridin-2-yl-propan-1-one oxime], the midpoint of the response, the EC50, lay at 341 nM.
The compound `O=C(O)c1cccc(C(C/C(=N\O)c2ccncc2)c2ccccc2)c1` (stereo not shown) [Example 69, 3-{3-[(E)-Hydroxyimino]-1-phenyl-3-pyridin-4-yl-propyl}-benzoic acid] came in with an EC50 of 1890 nM.
With `O/N=C(\CC(c1ccccc1)c1ccccc1)c1cc(Cl)nc(Cl)c1` [Example 72, (E)-1-(2,6-Dichloro-pyridin-4-yl)-3,3-diphenyl-propan-1-one oxime] the figure was 221 nM; with `O/N=C(/CC(c1ccccc1)c1ccccc1)c1cc(Cl)nc(Cl)c1` [Example 73, (Z)-1-(2,6-dichloro-pyridin-4-yl)-3,3-diphenyl-propan-1-one oxime], 4430 nM; with `O=C(O)c1cccc(-c2ccc(C(C/C(=N\O)c3ccncc3)c3ccccc3)cc2)c1` (stereo not shown) [Example 76, 4′-{3-[(E)-Hydroxyimino]-1-phenyl-3-pyridin-4-yl-propyl}-biphenyl-3-carboxylic acid], 490 nM.
`O=C(O)c1ccc(-c2ccc(C(C/C(=N\O)c3ccncc3)c3ccccc3)cc2)cc1` (stereo not shown) [Example 77, 4′-{3-[(E)-Hydroxyimino]-1-phenyl-3-pyridin-4-yl-propyl}-biphenyl-4-carboxylic acid] had an EC50 of 269 nM.
For the compound `Cc1cc(/C(C[C@H](c2ccc(-c3ccc(C(=O)NCC(=O)O)cc3)cc2)c2ccccc2C)=N/O)ccn1` [Example 96, ({4′-[(R)-3-[(E)-Hydroxyimino]-3-(2-methyl-pyridin-4-yl)-1-o-tolyl-propyl]-biphenyl-4-carbonyl}-amino)-acetic acid], the EC50 is 3 nM.
The figure for `Cc1cc(/C(CC(c2cccc(-c3ccc(C(=O)O)c(F)c3)c2)c2ccccc2C)=N/O)ccn1` (stereo not shown) [Example 101, 3-Fluoro-3′-[3-[(E)-hydroxyimino]-3-(2-methyl-pyridin-4-yl)-1-o-tolyl-propyl]-biphenyl-4-carboxylic acid] is 1700 nM; for `Cc1cc(/C(CC(c2cccc(-c3ccc(C(=O)O)cc3)c2)c2ccccc2C)=N/O)ccn1` (stereo not shown) [Example 103, (E)-3′-[3-[Hydroxyimino]-3-(2-methyl-pyridin-4-yl)-1-o-tolyl-propyl]-biphenyl-4-carboxylic acid] it is 589 nM; for `Cc1cc(/C(CC(c2cccc(CC(=O)O)c2)c2ccccc2C)=N/O)ccn1` (stereo not shown) [Example 105, {3-[3-[(E)-Hydroxyimino]-3-(2-methyl-pyridin-4-yl)-1-o-tolyl-propyl]-phenyl}-acetic acid] it is 1020 nM.
With `Cc1cc(/C(CC(c2cccc(-c3cccc(C(=O)NCC(=O)O)c3)c2)c2ccccc2C)=N/O)ccn1` (stereo not shown) [Example 108, ({3′-[3-[(E)-Hydroxyimino]-3-(2-methyl-pyridin-4-yl)-1-o-tolyl-propyl]-biphenyl-3-carbonyl}-amino)-acetic acid] the figure was 76 nM; with `Cc1ccccc1C(C/C(=N\O)c1ccn(C)c(=O)c1)c1ccc(Br)cc1` (stereo not shown) [Example 110, 4-{3-(4-Bromo-phenyl)-1-[(E)-hydroxyimino]-3-o-tolyl-propyl}-1-methyl-1H-pyridin-2-one], 116 nM; with `Cc1cc(/C(CC(c2ccc(Br)cc2)c2ncccc2C)=N/O)ccn1` (stereo not shown) [Example 116, (E)-3-(4-Bromo-phenyl)-3-(3-methyl-pyridin-2-yl)-1-(2-methyl-pyridin-4-yl)-propan-1-one oxime], 5 nM.
Regarding `Cc1cc(/C(CC(c2ccc(-c3ccc(C(=O)O)cc3)cc2)c2ncccc2C)=N/O)ccn1` (stereo not shown) [Example 117, (E)-4′-[3-[Hydroxyimino]-3-(2-methyl-pyridin-4-yl)-1-(3-methyl-pyridin-2-yl)-propyl]-biphenyl-4-carboxylic acid], the EC50 worked out at 102 nM.
With `Cc1ccccc1C(C/C(=N\O)c1cc(Cl)nc(Cl)c1)c1ccc(Br)cc1` (stereo not shown) [Example 120, (E)-3-(4-Bromo-phenyl)-1-(2,6-dichloro-pyridin-4-yl)-3-o-tolyl-propan-1-one oxime] the figure was 184 nM; with `Cc1cc(/C(CC(c2cccc(Br)c2)c2ccccc2C)=N/O)cc(F)n1` (stereo not shown) [Example 122, (E)-3-(3-Bromo-phenyl)-1-(2-fluoro-6-methyl-pyridin-4-yl)-3-o-tolyl-propan-1-one oxime], 201 nM.

Source of the values: patent publication US8765730B2 (Hoffmann-La Roche Inc, priority 2010, dated 2014).
